Measured values as given in the supplement of paper PMC13207355.

Experiments:
Conditions in all cases: exposure time: 72 h
E28 [1] = patient-derived glioblastoma stem cells of classical subtype; experiment: phenotypic distance (Euclidean, principal components) from DMSO controls (arbitrary units); higher = stronger morphological change
E34 [2] = patient-derived glioblastoma stem cells of proneural subtype; experiment: as above
E31 [3] = patient-derived glioblastoma stem cells of proneural subtype; experiment: as above
E13 [4] = patient-derived glioblastoma stem cells of classical subtype; experiment: as above
E57 [5] = patient-derived glioblastoma stem cells of mesenchymal subtype; experiment: as above
E21 [6] = patient-derived glioblastoma stem cells of mesenchymal subtype; experiment: as above
FT3469 [7] = normal neural stem cell line; experiment: as above
E28 [8] = experiment: surviving fraction (nuclei count normalised to DMSO); higher = more cells surviving (less toxic)
E34 [9] = experiment: as above
E31 [10] = experiment: as above
E13 [11] = experiment: as above
E57 [12] = experiment: as above
E21 [13] = experiment: as above
FT3469 [14] = experiment: as above
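Wherever phenotypic distance (Euclidean, principal components) from DMSO controls is given: cell Painting imaging in 384-well plates, CellProfiler features reduced to at least 20 principal components, Euclidean distance versus same-plate DMSO vehicle wells (0.1% v/v), median over six images per well.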
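Wherever surviving fraction (nuclei count normalised to DMSO) is given: nuclei counted by high-content imaging of Hoechst-stained cells in laminin-coated 384-well plates, relative to 0.1% DMSO vehicle wells, with staurosporine as cell-death control.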

CCc1c2c(nc3ccc(OC(=O)N4CCC(N5CCCCC5)CC4)cc13)-c1cc3c(c(=O)n1C2)COC(=O)[C@]3(O)CC [Irinotecan]
Conditions	phenotypic distance	surviving fraction
E13 [4], 4.1 nM	0.394	–
E13 [4], 12.3 nM	1.01	–
E13 [4], 37 nM	0.761	–
E13 [4], 111.1 nM	0.76	–
E13 [4], 333.3 nM	1.35	–
E13 [4], 1000 nM	2.55	–
E13 [4], 3000 nM	5.65	–
E13 [11], 4.1 nM	–	0.966
E13 [11], 12.3 nM	–	1.03
E13 [11], 37 nM	–	1
E13 [11], 111.1 nM	–	0.975
E13 [11], 333.3 nM	–	0.974
E13 [11], 1000 nM	–	0.784
E13 [11], 3000 nM	–	0.418
E21 [6], 4.1 nM	0.618	–
E21 [6], 12.3 nM	1.21	–
E21 [6], 37 nM	0.691	–
E21 [6], 111.1 nM	1.31	–
E21 [6], 333.3 nM	1.88	–
E21 [6], 1000 nM	3.97	–
E21 [6], 3000 nM	5.51	–
E21 [13], 4.1 nM	–	1.03
E21 [13], 12.3 nM	–	1.08
E21 [13], 37 nM	–	0.918
E21 [13], 111.1 nM	–	1.03
E21 [13], 333.3 nM	–	0.883
E21 [13], 1000 nM	–	0.589
E21 [13], 3000 nM	–	0.124
E28 [1], 4.1 nM	0.5	–
E28 [1], 12.3 nM	0.951	–
E28 [1], 37 nM	0.608	–
E28 [1], 111.1 nM	0.966	–
E28 [1], 333.3 nM	1.51	–
E28 [1], 1000 nM	3.61	–
E28 [1], 3000 nM	4.49	–
E28 [8], 4.1 nM	–	1.21
E28 [8], 12.3 nM	–	1.07
E28 [8], 37 nM	–	1.07
E28 [8], 111.1 nM	–	0.969
E28 [8], 333.3 nM	–	0.765
E28 [8], 1000 nM	–	0.541
E28 [8], 3000 nM	–	0.302
E31 [3], 4.1 nM	0.6	–
E31 [3], 12.3 nM	0.75	–
E31 [3], 37 nM	0.721	–
E31 [3], 111.1 nM	0.569	–
E31 [3], 333.3 nM	1.07	–
E31 [3], 1000 nM	1.39	–
E31 [3], 3000 nM	3.35	–
E31 [10], 4.1 nM	–	0.946
E31 [10], 12.3 nM	–	1.1
E31 [10], 37 nM	–	0.899
E31 [10], 111.1 nM	–	0.922
E31 [10], 333.3 nM	–	0.946
E31 [10], 1000 nM	–	0.579
E31 [10], 3000 nM	–	0.144
E34 [2], 4.1 nM	0.814	–
E34 [2], 12.3 nM	0.597	–
E34 [2], 37 nM	0.83	–
E34 [2], 111.1 nM	0.866	–
E34 [2], 333.3 nM	2.22	–
E34 [2], 1000 nM	4.25	–
E34 [2], 3000 nM	3.72	–
E34 [9], 4.1 nM	–	1.01
E34 [9], 12.3 nM	–	0.922
E34 [9], 37 nM	–	0.796
E34 [9], 111.1 nM	–	0.981
E34 [9], 333.3 nM	–	0.942
E34 [9], 1000 nM	–	0.675
E34 [9], 3000 nM	–	0.542
E57 [5], 4.1 nM	0.685	–
E57 [5], 12.3 nM	0.929	–
E57 [5], 37 nM	0.554	–
E57 [5], 111.1 nM	0.781	–
E57 [5], 333.3 nM	1.52	–
E57 [5], 1000 nM	3.59	–
E57 [5], 3000 nM	7.66	–
E57 [12], 4.1 nM	–	1.08
E57 [12], 12.3 nM	–	1.02
E57 [12], 37 nM	–	0.935
E57 [12], 111.1 nM	–	0.931
E57 [12], 333.3 nM	–	1.01
E57 [12], 1000 nM	–	0.658
E57 [12], 3000 nM	–	0.189
FT3469 [7], 4.1 nM	0.701	–
FT3469 [7], 12.3 nM	1.1	–
FT3469 [7], 37 nM	1.06	–
FT3469 [7], 111.1 nM	1.22	–
FT3469 [7], 333.3 nM	1.84	–
FT3469 [7], 1000 nM	2.27	–
FT3469 [7], 3000 nM	2.46	–
FT3469 [14], 4.1 nM	–	1.03
FT3469 [14], 12.3 nM	–	0.94
FT3469 [14], 37 nM	–	0.96
FT3469 [14], 111.1 nM	–	0.904
FT3469 [14], 333.3 nM	–	0.739
FT3469 [14], 1000 nM	–	0.748
FT3469 [14], 3000 nM	–	0.648
